Test systems include ACHN renal; CCRF-CEM leukemia; HCT-116 colon; HS 578T breast; LOX IMVI melanoma; M14 melanoma; NCI/ADR-RES ovarian; SF-268 CNS; SK-MEL-5 melanoma; SK-OV-3 ovarian; T-47D breast; UACC-257 melanoma.
Holding throughout (assay): NCI anticancer screen, dose series, 48 h

Molecules are shown by their SMILES.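 All cell lines were grown in 96-well plates and treated with compound for 48 hours. Definition used: TGI = concentration required for complete inhibition of growth.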

For the molecule `O=c1/c(=C/c2ccccn2)sc2nc3cc4c(cc3n12)OCCO4`, the TGI in the experiment with ACHN renal, in the experiment on CCRF-CEM leukemia, in the experiment with HCT-116 colon, with HS 578T breast, with LOX IMVI melanoma and with M14 melanoma was above 100 µM in each case. Moreover, the TGI in the experiment on NCI/ADR-RES ovarian, in the experiment with SF-268 CNS, with SK-MEL-5 melanoma, with SK-OV-3 ovarian, with T-47D breast and with UACC-257 melanoma was above 100 µM in each case.
Consider `CCOS(=O)(=O)c1ccc(-c2c3nc(c(-c4ccc(S(=O)(=O)OCC)cc4)c4ccc([nH]4)c(-c4ccc(S(=O)(=O)OCC)cc4)c4nc(c(-c5ccc(S(=O)(=O)OCC)cc5)c5ccc2[nH]5)C=C4)C=C3)cc1`, for which the TGI in the experiment on ACHN renal, in the experiment on CCRF-CEM leukemia, in the experiment on HCT-116 colon, in the experiment on HS 578T breast, in the experiment on M14 melanoma and in the experiment with NCI/ADR-RES ovarian was above 31.6 µM in each case. The TGI in the experiment on SF-268 CNS, with SK-MEL-5 melanoma, in the experiment on SK-OV-3 ovarian, in the experiment on T-47D breast and in the experiment on UACC-257 melanoma was above 31.6 µM in each case.
In the case of `C(=C/c1nnnn1-c1ccccc1)/Nc1ccccc1`, the TGI in the experiment with ACHN renal is above 100 µM; with CCRF-CEM leukemia, above 100 µM; with HCT-116 colon, 95.7 µM; with HS 578T breast, above 100 µM; in the experiment on LOX IMVI melanoma, above 100 µM; in the experiment on M14 melanoma, 77.3 µM. Moreover, the TGI in the experiment with NCI/ADR-RES ovarian is 80.2 µM; with SF-268 CNS, above 100 µM; in the experiment on SK-MEL-5 melanoma, 27.7 µM; in the experiment with SK-OV-3 ovarian it was above 100 µM; in the experiment on T-47D breast, above 100 µM; with UACC-257 melanoma it was above 100 µM.
In the case of `CCC(Nc1ncnc2nc[nH]c12)C(=O)O` (centres undefined), the TGI with ACHN renal, in the experiment on CCRF-CEM leukemia, with HCT-116 colon, in the experiment with HS 578T breast, with LOX IMVI melanoma and with M14 melanoma was above 100 µM in each case. Also, the TGI with NCI/ADR-RES ovarian, with SF-268 CNS, in the experiment on SK-MEL-5 melanoma, with SK-OV-3 ovarian, with T-47D breast and in the experiment with UACC-257 melanoma was above 100 µM throughout.
In the case of `CN(C)CCCn1c(Cn2nc3ccccc3n2)nc2cc(C(F)(F)F)ccc21`, the TGI in the experiment with ACHN renal was above 100 µM; in the experiment with CCRF-CEM leukemia, 39.5 µM; with HCT-116 colon, above 100 µM; in the experiment on HS 578T breast, above 100 µM; with LOX IMVI melanoma, 34.6 µM; in the experiment on M14 melanoma it was 29 µM. Further, the TGI in the experiment with NCI/ADR-RES ovarian is above 100 µM; with SF-268 CNS, above 100 µM; with SK-MEL-5 melanoma, 30.2 µM; with SK-OV-3 ovarian, 60.9 µM; in the experiment on T-47D breast, 35.1 µM; in the experiment on UACC-257 melanoma, 33.5 µM.
Turning to `O=C(CC(C(=O)c1cccs1)c1ccsc1)c1ccc(Cl)s1` (centres undefined), the TGI in the experiment with ACHN renal, with CCRF-CEM leukemia, with HCT-116 colon, with HS 578T breast, with LOX IMVI melanoma and in the experiment on M14 melanoma was above 100 µM each time. Besides, the TGI with NCI/ADR-RES ovarian, with SF-268 CNS, in the experiment with SK-MEL-5 melanoma, in the experiment on SK-OV-3 ovarian, in the experiment on T-47D breast and in the experiment with UACC-257 melanoma was above 100 µM in each case.
Take `COc1ccc2c(c1)/c(=C/C#N)c1c3ccccc3[n+](C)n21`: the TGI is 32 µM with ACHN renal; 13.1 µM with CCRF-CEM leukemia; 12.5 µM in the experiment on HCT-116 colon; 50.4 µM in the experiment on HS 578T breast; 28.6 µM in the experiment on LOX IMVI melanoma; 32.4 µM with M14 melanoma. Moreover, the TGI is above 100 µM in the experiment with NCI/ADR-RES ovarian; 30.5 µM in the experiment on SF-268 CNS; above 44.8 µM in the experiment on SK-MEL-5 melanoma; above 100 µM with SK-OV-3 ovarian; 10.6 µM in the experiment on T-47D breast; 19.3 µM in the experiment on UACC-257 melanoma.
As to `CSc1ccc2c(c1)c(CCN)c(C)n2Cc1ccccc1Cl`, the TGI in the experiment on ACHN renal was found to be 3.06 µM; with CCRF-CEM leukemia, 3.89 µM; in the experiment with HCT-116 colon it was 3.07 µM; in the experiment with HS 578T breast, 3.67 µM; in the experiment with M14 melanoma, 3.32 µM; in the experiment on NCI/ADR-RES ovarian it was 4.77 µM. Further, the TGI with SF-268 CNS was determined as 3.4 µM; in the experiment with SK-MEL-5 melanoma, 3.11 µM; with SK-OV-3 ovarian, 4.28 µM; in the experiment with T-47D breast, 3.09 µM; in the experiment on UACC-257 melanoma, 3.29 µM.
Take `Cc1cc(C)c2c(n1)S(=O)(=O)N(CCCN1CCN(c3cccc(Cl)c3)CC1)/C(=C(\O)c1ccc(Br)cc1)C2=O`: the TGI with ACHN renal is above 100 µM; with CCRF-CEM leukemia, above 100 µM; in the experiment on HCT-116 colon, 52 µM; with HS 578T breast, above 100 µM; in the experiment with LOX IMVI melanoma, above 100 µM; with M14 melanoma, above 100 µM. The TGI in the experiment with NCI/ADR-RES ovarian is above 100 µM; in the experiment on SF-268 CNS, above 100 µM; with SK-MEL-5 melanoma, 39.7 µM; in the experiment with SK-OV-3 ovarian it was above 100 µM; in the experiment on T-47D breast, above 100 µM; with UACC-257 melanoma, 45.3 µM.
`O=c1c2c3c(sc2nc2n1NC=NN2)CCCC3`: the TGI in the experiment on ACHN renal was 30.3 µM; in the experiment with CCRF-CEM leukemia, 4.88 µM; in the experiment with HCT-116 colon, 32.4 µM; with HS 578T breast, 52.7 µM; in the experiment with LOX IMVI melanoma, 4.88 µM; in the experiment on M14 melanoma, above 57 µM. The TGI in the experiment with NCI/ADR-RES ovarian was 65.5 µM; in the experiment on SF-268 CNS, 34.8 µM; in the experiment on SK-MEL-5 melanoma, 31.7 µM; in the experiment with SK-OV-3 ovarian, above 65.5 µM; in the experiment on T-47D breast, above 65.8 µM; in the experiment with UACC-257 melanoma, 41.9 µM.
On to `CC[C@]12C=CCN3CC[C@@]4(c5cc(Br)c(OC)cc5N(C)[C@H]4[C@@](O)(C(=O)NC(Cc4c[nH]c5ccccc45)C(=O)OC)[C@@H]1O)[C@@H]32` (some centres undefined), for which the TGI with ACHN renal is above 100 µM; in the experiment on CCRF-CEM leukemia, above 100 µM; in the experiment with HCT-116 colon, above 100 µM; with HS 578T breast it was above 100 µM; with LOX IMVI melanoma, 90.9 µM; in the experiment on M14 melanoma, above 100 µM. The TGI in the experiment with NCI/ADR-RES ovarian is above 100 µM; in the experiment on SF-268 CNS, above 100 µM; in the experiment with SK-MEL-5 melanoma it was 75.8 µM; with SK-OV-3 ovarian, above 100 µM; in the experiment on T-47D breast, above 100 µM.

For the origin of these results see PubChem BioAssay (NCI).
